One test concerns the target T1, COX-2 (Homo sapiens, UniProt P35354).
T1 sequence (P35354 18-604): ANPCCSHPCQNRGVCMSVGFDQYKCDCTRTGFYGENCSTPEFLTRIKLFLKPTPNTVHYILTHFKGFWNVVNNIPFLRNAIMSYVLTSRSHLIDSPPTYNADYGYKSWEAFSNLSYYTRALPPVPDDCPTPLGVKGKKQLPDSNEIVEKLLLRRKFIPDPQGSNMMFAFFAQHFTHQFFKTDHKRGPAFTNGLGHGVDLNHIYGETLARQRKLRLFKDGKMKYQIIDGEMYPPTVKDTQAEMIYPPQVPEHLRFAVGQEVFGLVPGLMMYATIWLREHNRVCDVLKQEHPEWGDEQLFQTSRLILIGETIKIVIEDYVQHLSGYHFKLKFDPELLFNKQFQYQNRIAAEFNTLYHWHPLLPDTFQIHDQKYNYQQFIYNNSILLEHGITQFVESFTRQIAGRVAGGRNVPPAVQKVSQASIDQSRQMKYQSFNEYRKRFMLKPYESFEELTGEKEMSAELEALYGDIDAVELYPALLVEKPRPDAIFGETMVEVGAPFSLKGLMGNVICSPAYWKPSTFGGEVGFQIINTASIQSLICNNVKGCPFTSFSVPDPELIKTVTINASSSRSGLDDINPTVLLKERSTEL
The test can be described thus: COX-2 enzyme activity in human whole blood (LPS induced, thromboxane B2 EIA). The format is cell-based. The settings on record: test compound at 10 μM. The arrangement: Human blood (≈50 mL) from male or female donors who had not received any aspirin or NSAIDs for 14 days; endogenous in cells; host or cells: human whole blood from donors, LPS-induced.

The target in another test is COX-1 (Homo sapiens, UniProt P23219). The test can be described thus: COX-1 enzyme activity in human whole blood (A23187 stimulated, thromboxane B2 EIA). The format is cell-based. The arrangement: Human blood (≈50 mL) from male or female donors who had not received any aspirin or NSAIDs for 14 days; endogenous in cells; host or cells: human whole blood from donors. The following applies: test compound at 100 μM.
Sequence of COX-1 (P23219 24-599): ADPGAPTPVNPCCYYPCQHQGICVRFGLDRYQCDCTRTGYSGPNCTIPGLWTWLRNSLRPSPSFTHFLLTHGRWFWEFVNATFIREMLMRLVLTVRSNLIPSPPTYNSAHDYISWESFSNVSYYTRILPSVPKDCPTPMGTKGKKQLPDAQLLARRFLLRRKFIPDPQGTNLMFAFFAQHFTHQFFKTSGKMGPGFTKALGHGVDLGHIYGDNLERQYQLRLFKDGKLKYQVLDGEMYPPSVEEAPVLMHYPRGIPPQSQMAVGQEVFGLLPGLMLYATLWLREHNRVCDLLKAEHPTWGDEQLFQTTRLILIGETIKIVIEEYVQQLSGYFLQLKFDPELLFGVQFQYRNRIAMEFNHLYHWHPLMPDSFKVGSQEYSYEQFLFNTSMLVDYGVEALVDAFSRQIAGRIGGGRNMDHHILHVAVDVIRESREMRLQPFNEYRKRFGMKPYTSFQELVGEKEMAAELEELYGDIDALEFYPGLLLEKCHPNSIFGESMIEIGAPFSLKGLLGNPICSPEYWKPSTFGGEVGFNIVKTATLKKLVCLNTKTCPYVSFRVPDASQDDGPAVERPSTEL

Turning to `CS(=O)(=O)c1ccc(-c2cc3c(cc2CC2CCCCC2)OCO3)cc1` [Example 1e, 1-(6-(Cyclohexylmethyl)(2-H-benzo(3,4-d)1,3-dioxolen-5-yl))-4-(methylsulfonyl) benzene], the “COX-2 Inhibition (% at 10 μM)” value at COX-2 amounted to 90%. Moreover, the “COX-1 Inhibition (% at 100 μM)” value at COX-1 is 40%.

On to `CS(=O)(=O)c1ccc(-c2cc3c(cc2C(=O)c2ccccc2)OCO3)cc1` [Example 3d, 6-(4-(Methylsulfonyl)phenyl)(2H-benzo(d)1,3-dioxolan-5-yl) phenyl ketone], for which the “COX-2 Inhibition (% at 10 μM)” value on COX-2 was 60%. For the same compound, the “COX-1 Inhibition (% at 100 μM)” value on COX-1 is 75%.

Regarding `CS(=O)(=O)c1ccc(-c2cc3c(cc2Cc2cccnc2)OCO3)cc1` [Example 6c, 4-(Methylsulfonyl)-1-(6-(3-pyridylmethyl)(2H-benzo(3,4-d)1,3-dioxolan-5-yl))benzene], on COX-2, the “COX-2 Inhibition (% at 10 μM)” value came to 10%. Also, on COX-1, the “COX-1 Inhibition (% at 100 μM)” value came out at 20%.

Consider `CS(=O)(=O)c1ccc(-c2cc3c(cc2CN2CCCCC2=O)OCO3)cc1` [Example 9c], for which the “COX-2 Inhibition (% at 10 μM)” value on COX-2 turned out to be 30%. Besides, the “COX-1 Inhibition (% at 100 μM)” value at COX-1 came to 35%.

Take `CS(=O)(=O)c1ccc(-c2cc3c(cc2C=C2CCCC2)OCO3)cc1` [Example 10a, 4-(6-(Cyclopentylidenemethyl)(2H-benzo(3,4-d)1,3-dioxolan-5-yl))-1-(methylsulfonyl)benzene]: the “COX-2 Inhibition (% at 10 μM)” value at COX-2 was 90%. Also, the “COX-1 Inhibition (% at 100 μM)” value at COX-1 is 70%.

Regarding `CS(=O)(=O)c1ccc(-c2cc3c(cc2Cc2cc(F)cc(F)c2)OCO3)cc1` [Example 15c, 5-(1-(3′,5′-Difluorophenyl)methyl)-1,2-methylenedioxy-4-(4-methylsulfonylphenyl)benzene], on COX-2, the “COX-2 Inhibition (% at 10 μM)” value amounted to 85%. The “COX-1 Inhibition (% at 100 μM)” value on COX-1 is listed as 75%.

These data come from patent US6825185B2, “Substituted aryl compounds as novel cyclooxygenase-2 selective inhibitors, compositions and methods of use” (NitroMed, Inc., priority 2000, dated 2004).
